Reference: paper PMC7018514 (eLife, 2020)

Experiments:
human IMPDH2 [1] = biological target: T1, human IMPDH2 (Homo sapiens, UniProt P12268, Y12A); test: NADH absorbance ([…] nm) activity assay with GTP dose-response; […] inhibited at […] GTP; assay type: biochemical
T1 construct: full-length hIMPDH2, non-assembling mutant

human IMPDH2 [2] = biological target: T2, human IMPDH2 (Homo sapiens, UniProt P12268); test: cryo-EM structures ([…] Å fully compressed filament segment; […] Å free octamer), plus GTP inhibition kinetics of purified enzyme; assay type: biochemical
T2 construct: full-length hIMPDH2 (SUMO tag removed)
T2 sequence (P12268 2-514): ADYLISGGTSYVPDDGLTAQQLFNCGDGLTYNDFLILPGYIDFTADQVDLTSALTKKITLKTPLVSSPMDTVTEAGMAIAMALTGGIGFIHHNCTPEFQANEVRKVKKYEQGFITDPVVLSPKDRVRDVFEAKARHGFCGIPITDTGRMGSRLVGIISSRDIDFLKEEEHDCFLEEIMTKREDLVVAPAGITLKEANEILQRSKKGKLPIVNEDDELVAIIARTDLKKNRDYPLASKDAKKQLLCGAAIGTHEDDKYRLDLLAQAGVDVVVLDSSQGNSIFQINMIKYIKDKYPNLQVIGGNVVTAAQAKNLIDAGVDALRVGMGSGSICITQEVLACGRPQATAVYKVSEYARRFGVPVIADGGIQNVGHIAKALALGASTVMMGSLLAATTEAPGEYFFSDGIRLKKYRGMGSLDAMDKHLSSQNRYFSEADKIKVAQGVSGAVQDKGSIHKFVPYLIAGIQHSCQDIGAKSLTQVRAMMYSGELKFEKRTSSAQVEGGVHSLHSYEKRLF

human IMPDH2 [3] = biological target: T2, human IMPDH2; test: cryo-EM structure ([…] Å filament assembly interface); NAD+ saturation kinetics; assay type: binding

T1 sequence (P12268 2-514 Y12A): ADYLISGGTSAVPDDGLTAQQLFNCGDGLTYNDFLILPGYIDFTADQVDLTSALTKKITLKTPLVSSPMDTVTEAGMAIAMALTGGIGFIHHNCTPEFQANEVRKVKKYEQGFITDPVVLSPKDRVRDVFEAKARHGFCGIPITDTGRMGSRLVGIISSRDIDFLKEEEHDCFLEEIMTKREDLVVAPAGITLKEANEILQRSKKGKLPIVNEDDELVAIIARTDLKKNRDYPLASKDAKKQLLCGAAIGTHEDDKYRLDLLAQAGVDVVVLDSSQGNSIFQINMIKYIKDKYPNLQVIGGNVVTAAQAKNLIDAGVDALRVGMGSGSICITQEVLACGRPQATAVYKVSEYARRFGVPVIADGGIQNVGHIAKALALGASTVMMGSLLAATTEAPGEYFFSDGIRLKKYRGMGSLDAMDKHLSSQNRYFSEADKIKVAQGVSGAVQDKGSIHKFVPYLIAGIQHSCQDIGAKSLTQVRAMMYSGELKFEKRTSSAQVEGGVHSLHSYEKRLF

SMILES	IC50 (human IMPDH2 [1])	IC50 (human IMPDH2 [2])	cryo-EM structure (3.0 Å filament assembly interface); NAD+ saturation kinetics (human IMPDH2 [3])
Nc1nc2c(ncn2[C@@H]2O[C@H](COP(=O)(O)OP(=O)(O)OP(=O)(O)O)[C@@H](O)[C@H]2O)c(=O)[nH]1 [GTP]	< 2000 µM	> 2000 µM	–
NC(=O)c1ccc[n+]([C@@H]2O[C@H](COP(=O)([O-])OP(=O)(O)OC[C@H]3O[C@@H](n4cnc5c(N)ncnc54)[C@H](O)[C@@H]3O)[C@@H](O)[C@H]2O)c1 [NAD+]	–	–	There is strong density in the both the IMP and NAD^+ binding sites.
